# Assay results as given in ChEMBL document CHEMBL1201862, “PubChem BioAssay data set” (2004).
#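 How tested: cells in 96-well plates exposed to compound for 48 hours at five concentrations. The concentration for 50% growth inhibition is given as GI50.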 Activity calls are given as the source filed them. Rule as the data show it: active = GI50 up to about 1.1 µM and inactive = higher. Where a SMILES comes first, the peptide text is derived from it. The star is where a group is joined. Boc = CC(C)(C)OC(=O)*
# How the values were obtained:
# Test in all cases: NCI tumour cell line growth inhibition, 48 h
# MDA-MB-231 = system: MDA-MB-231
# MDA-MB-435 = system: MDA-MB-435
# HCT-15 = system: HCT-15
# HL-60 = system: HL-60
# HOP-92 = system: HOP-92
# SK-MEL-28 = system: SK-MEL-28
# SR = system: SR
# COLO 205 = system: COLO 205
# SF-295 = system: SF-295
# OVCAR-8 = system: OVCAR-8
# UACC-62 = system: UACC-62
# MDA-N = system: MDA-N
# M14 = system: M14
# HT-29 = system: HT-29
# BT-549 = system: BT-549
# 786-0 = system: 786-0
# UACC-257 = system: UACC-257
# U-251 = system: U-251
# T47D = system: T47D
# NCI-H460 = system: NCI-H460
Structure (SMILES),GI50 (MDA-MB-231),GI50 (MDA-MB-435),GI50 (HCT-15) [µM],GI50 (HL-60),GI50 (HOP-92),GI50 (SK-MEL-28),GI50 (SR),GI50 (COLO 205),GI50 (SF-295),GI50 (OVCAR-8),GI50 (UACC-62),GI50 (MDA-N),GI50 (M14),GI50 (HT-29),GI50 (BT-549),GI50 (786-0),GI50 (UACC-257),GI50 (U-251),GI50 (T47D),GI50 (NCI-H460)
CC1OC(Oc2c(-c3cc(O)c(O)c(O)c3)oc3cc(O)cc(O)c3c2=O)C(O)C(O)C1O (stereo unspecified),87.9 µM (inactive),57.4 µM (inactive),> 100,56.6 µM (inactive),> 100 µM (inactive),> 100 µM (inactive),96.8 µM (inactive),> 100 µM (inactive),> 100 µM (inactive),> 100 µM (inactive),> 100 µM (inactive),31 µM (inactive),> 100 µM (inactive),> 100 µM (inactive),> 100 µM (inactive),> 100 µM (inactive),> 100 µM (inactive),> 100 µM (inactive),> 100 µM (inactive),
COc1ccc(OC)c(CCc2cc(OC)ccc2OC)c1,3.66 µM (inactive),0.174 µM (active),0.34,1.5 µM (inactive),> 10 µM (inactive),3.28 µM (inactive),0.379 µM (active),1.29 µM (inactive),2.11 µM (inactive),2.86 µM (inactive),2.63 µM (inactive),0.234 µM (active),2.09 µM (inactive),1.06 µM (active),> 5.4 µM (inactive),3.17 µM (inactive),5.38 µM (inactive),4.81 µM (inactive),> 2.12 µM (inactive),1.71 µM (inactive)
CC(C)[Si]1(C(C)C)OCC2OC(N3C(=O)NC(=O)C[C@@H]3C(O)c3ccccc3)CC2O[Si](C(C)C)(C(C)C)O1 (stereo partly specified),5.86 µM (inactive),5.5 µM (inactive),5.42,2.65 µM (inactive),7.26 µM (inactive),4.51 µM (inactive),1.68 µM (inactive),9.86 µM (inactive),4.51 µM (inactive),6.19 µM (inactive),8.91 µM (inactive),4.3 µM (inactive),12.7 µM (inactive),2.48 µM (inactive),18.1 µM (inactive),5.93 µM (inactive),4.85 µM (inactive),3.24 µM (inactive),2.69 µM (inactive),3.03 µM (inactive)
CCOC(=O)[C@@]12C[C@](/C=C/OC)(O[Si](C)(C)C)[C@@]13c1cc(OC)c(OC)cc1CCN3C(=O)C2=O,> 100 µM (inactive),> 100 µM (inactive),> 100,,> 100 µM (inactive),> 100 µM (inactive),> 100 µM (inactive),> 100 µM (inactive),> 100 µM (inactive),> 100 µM (inactive),> 100 µM (inactive),> 100 µM (inactive),> 100 µM (inactive),> 100 µM (inactive),> 100 µM (inactive),> 100 µM (inactive),> 100 µM (inactive),> 100 µM (inactive),> 100 µM (inactive),> 100 µM (inactive)
C=CC[C@H]1O[Si](C(C)(C)C)(C(C)(C)C)[C@H](C)[C@H]1C,> 100 µM (inactive),> 100 µM (inactive),> 100,> 100 µM (inactive),24.3 µM (inactive),> 100 µM (inactive),59.6 µM (inactive),> 100 µM (inactive),> 100 µM (inactive),> 100 µM (inactive),> 100 µM (inactive),> 100 µM (inactive),> 100 µM (inactive),> 100 µM (inactive),> 100 µM (inactive),> 100 µM (inactive),> 100 µM (inactive),> 100 µM (inactive),> 100 µM (inactive),
C[N+](C)(N)Cc1csc(-c2ccc(Cl)cc2)n1,> 100 µM (inactive),> 100 µM (inactive),> 100,,> 100 µM (inactive),> 100 µM (inactive),> 100 µM (inactive),> 100 µM (inactive),67.1 µM (inactive),> 100 µM (inactive),> 100 µM (inactive),> 100 µM (inactive),> 100 µM (inactive),> 100 µM (inactive),34 µM (inactive),> 100 µM (inactive),> 100 µM (inactive),> 100 µM (inactive),80 µM (inactive),> 100 µM (inactive)
CSc1c(C(=O)Nc2ccc(C)cc2)c(N)nn1-c1ccccc1,40.6 µM (inactive),> 100 µM (inactive),> 100,> 100 µM (inactive),23.6 µM (inactive),55.1 µM (inactive),9.89 µM (inactive),> 100 µM (inactive),48.8 µM (inactive),,95.9 µM (inactive),> 100 µM (inactive),36.7 µM (inactive),> 100 µM (inactive),43.2 µM (inactive),19.9 µM (inactive),54 µM (inactive),28.3 µM (inactive),98.9 µM (inactive),3.55 µM (inactive)
c1ccc2c3c([nH]c2c1)C1c2[nH]c4ccccc4c2CCN1CC3,14.7 µM (inactive),15.2 µM (inactive),11,16.8 µM (inactive),2.03 µM (inactive),15.2 µM (inactive),9.75 µM (inactive),3.79 µM (inactive),16 µM (inactive),8.18 µM (inactive),16.7 µM (inactive),18.1 µM (inactive),,10.9 µM (inactive),16.1 µM (inactive),12.6 µM (inactive),14.5 µM (inactive),,14.9 µM (inactive),6.85 µM (inactive)
CC(NC(=O)C1CCCN1C(=O)CNC(=O)OC(C)(C)C)C(=O)O (stereo not drawn) (Boc-Gly-Pro-Ala-OH; configuration not given here),> 100 µM (inactive),> 100 µM (inactive),> 100,,62.5 µM (inactive),> 100 µM (inactive),> 100 µM (inactive),> 100 µM (inactive),> 100 µM (inactive),> 100 µM (inactive),> 100 µM (inactive),> 100 µM (inactive),> 100 µM (inactive),> 100 µM (inactive),> 100 µM (inactive),> 100 µM (inactive),> 100 µM (inactive),> 100 µM (inactive),> 100 µM (inactive),> 100 µM (inactive)
O=C1c2scnc2-c2nccc3c2c1nc1ccccc13 [KUANONIAMINE A],0.318 µM (active),0.191 µM (active),0.207,,1.88 µM (inactive),1.65 µM (inactive),0.137 µM (active),1.31 µM (inactive),1.58 µM (inactive),0.226 µM (active),0.38 µM (active),0.196 µM (active),0.564 µM (active),2.55 µM (inactive),1.25 µM (inactive),1.21 µM (inactive),0.363 µM (active),0.268 µM (active),0.215 µM (active),0.372 µM (active)
